These are literature values, as cited in PubChem BioAssay AID1259409 (Chemical Carcinogenesis Research Information System (CCRIS), 2018).

The test system of this data set is rodent chemically induced tumor inhibition, incidence and multiplicity. Description: CCRIS tumor inhibitor studies. Conditions: Route [Inhibitor]: DERMAL, Species: MOUSE, Target Tissue: Type of Lesion: SKIN: PAPILLOMA, Promoter: 12-O-TETRADECANOYLPHORBOL-13-ACETATE, 16561-29-8.

Consider `O=c1cc(-c2ccccc2)oc2c1ccc1ccccc12`, for which the “tumour outcome (control, treated, inhibition, significance)” value is listed as 97%, 96%, 1%, not calculated (Carcinogen: 7,14-DIMETHYLBENZO[A,H]ANTHRACENE, 35335-07-0, Dose [Inhibitor]: 0, 370 NMOL IN 0.2 ML ACETONE APPLIED 5 MIN PRIOR TO CARCINOGEN (STUDY DURATION: 21 WK), Strain/Sex: SENCAR/FEMALE, Dose [Carcinogen]: 47.5 NMOL IN 0.2 ML ACETONE ONCE); 97%, 97%, 0% (Carcinogen: 7,14-DIMETHYLBENZO[A,H]ANTHRACENE, 35335-07-0, Dose [Inhibitor]: 0, 3700 NMOL IN 0.2 ML ACETONE APPLIED 5 MIN PRIOR TO CARCINOGEN (STUDY DURATION: 21 WK), Strain/Sex: SENCAR/FEMALE, Dose [Carcinogen]: 47.5 NMOL IN 0.2 ML ACETONE ONCE); 55%, 30%, 45%, not calculated (Carcinogen: 7-(BROMOMETHYL)BENZ[A]ANTHRACENE, 24961-39-3, Dose [Inhibitor]: 100 UG IN 0.2 ML ACETONE ONCE 5 MIN BEFORE CARCINOGEN TREATMENT (STUDY DURATION: 31 WK), Strain/Sex: CD-1/FEMALE, Dose [Carcinogen]: 3125 NMOL IN 0.2 ML ACETONE ONCE); 96%, 72%, 25%, not calculated (Carcinogen: 7-BROMOMETHYL-12-METHYLBENZ[A]ANTHRACENE, 16238-56-5, Dose [Inhibitor]: 100 UG IN 0.2 ML ACETONE ONCE 5 MIN BEFORE CARCINOGEN TREATMENT (STUDY DURATION: 31 WK), Strain/Sex: CD-1/FEMALE, Dose [Carcinogen]: 600 NMOL IN 0.2 ML ACETONE ONCE); 84%, 63%, 25%, not calculated (Carcinogen: 7-FORMYL-12-METHYLBENZ[A]ANTHRACENE, 13345-61-4, Dose [Inhibitor]: 100 UG IN 0.2 ML ACETONE ONCE 5 MIN BEFORE CARCINOGEN TREATMENT (STUDY DURATION: 31 WK), Strain/Sex: CD-1/FEMALE, Dose [Carcinogen]: 740 NMOL IN 0.2 ML ACETONE ONCE); 48%, 52%, -8%, not calculated (Carcinogen: 7-HYDROXYMETHYL-12-METHYLBENZ[A]ANTHRACENE, 568-75-2, Dose [Inhibitor]: 100 UG IN 0.2 ML ACETONE ONCE 5 MIN BEFORE CARCINOGEN TREATMENT (STUDY DURATION: 31 WK), Strain/Sex: CD-1/FEMALE, Dose [Carcinogen]: 400 NMOL IN 0.2 ML ACETONE ONCE). Further, the “tumour outcome (control, treated, inhibition, significance)” value is 87%, 74%, 15%, not calculated (Carcinogen: 12-BROMOMETHYL-7-METHYLBENZ[A]ANTHRACENE, 59230-81-8, Dose [Inhibitor]: 100 UG IN 0.2 ML ACETONE ONCE 5 MIN BEFORE CARCINOGEN TREATMENT (STUDY DURATION: 31 WK), Strain/Sex: CD-1/FEMALE, Dose [Carcinogen]: 600 NMOL IN 0.2 ML ACETONE ONCE); 90%, 90%, 0%, not calculated (Carcinogen: BENZO[A]PYRENE, 50-32-8, Dose [Inhibitor]: 10 UG IN 0.2 ML ACETONE ONCE 5 MINUTES BEFORE CARCINOGEN TREATMENT (STUDY DURATION: 31 WK), Strain/Sex: CD-1/FEMALE, Dose [Carcinogen]: 400 NMOL IN 0.2 ML ACETONE ONCE); 90%, 80%, 11%, not calculated (Carcinogen: BENZO[A]PYRENE, 50-32-8, Dose [Inhibitor]: 100 UG IN 0.2 ML ACETONE ONCE 5 MINUTES BEFORE CARCINOGEN TREATMENT (STUDY DURATION: 31 WK), Strain/Sex: CD-1/FEMALE, Dose [Carcinogen]: 400 NMOL IN 0.2 ML ACETONE ONCE); 90%, 77%, 14%, not calculated (Carcinogen: BENZO[A]PYRENE, 50-32-8, Dose [Inhibitor]: 200 UG IN 0.2 ML ACETONE ONCE 5 MINUTES BEFORE CARCINOGEN TREATMENT (STUDY DURATION: 31 WK), Strain/Sex: CD-1/FEMALE, Dose [Carcinogen]: 400 NMOL IN 0.2 ML ACETONE ONCE); 100%, 77%, 23%, not calculated (Carcinogen: DIBENZO[A,H]ANTHRACENE, 53-70-3, Dose [Inhibitor]: 0, 370 NMOL IN 0.2 ML ACETONE APPLIED 5 MIN PRIOR TO CARCINOGEN (STUDY DURATION: 21 WK), Strain/Sex: SENCAR/FEMALE, Dose [Carcinogen]: 200 NMOL IN 0.2 ML ACETONE ONCE); 100%, 80%, 20%, not calculated (Carcinogen: DIBENZO[A,H]ANTHRACENE, 53-70-3, Dose [Inhibitor]: 0, 3700 NMOL IN 0.2 ML ACETONE APPLIED 5 MIN PRIOR TO CARCINOGEN (STUDY DURATION: 21 WK), Strain/Sex: SENCAR/FEMALE, Dose [Carcinogen]: 200 NMOL IN 0.2 ML ACETONE ONCE).
